# Experimental data: publication PMC10063609, “Discovery of novel cardiac troponin activators using fluorescence polarization-based high throughput screening assays” (Scientific Reports, 2023)
# Structures can show the parent of a compound that is named as a salt. *1 amine or outer side, *2 acyl side, *3 side chain or, on linkers, in order; H or OH if unused. Where a SMILES comes first, the peptide text is derived from it. Bridges are numbered along the chain shown (N, C = ends). [ ]: non-standard residue; d: D form. The star is where a group is joined. hTyr(3S-OH,4S-OH,3'-OSO3H) = N[C@H](C(=O)O)[C@H](O)[C@@H](O)c1ccc(O)c(OS(=O)(=O)O)c1; Orn(4R-OH,5R-OH) = O=C([C@H](C[C@@H](O)[C@@H](O)N[*:3])N[*:1])[*:2]; Pro(3S-OH,4S-Me) = C[C@H]1CN[C@H](C(=O)O)[C@H]1O; X1 = CCCCCOc1ccc(-c2cc(-c3ccc(C(=O)*)cc3)no2)cc1; Gln(3R-OH) = NC(=O)C[C@@H](O)[C@H](N)C(=O)O; Hyp = O=C(O)[C@@H]1C[C@@H](O)CN1
# Experiments:
# [1] = biological target: interaction between cTnC and the anchoring region of cTnI (cTnIAR) (Homo sapiens, UniProt P63316); assay: Fluorescence polarization HTS, binding and dose-response, cTnC/FAM-cTnIAR; conditions: for FP (mP): cTnIAR primary screen, single concentration 10 μmol/L; for Effect on FP from the cTnC FAM-cTnIAR mixture: dose-response, concentration dependent (Fig. 2c)
# Method: (§1) Each compound was tested at a concentration of 50 μmol/L and 10 μmol/L for the cTnISP and cTnIAR screen, respectively. Hits were defined as compounds that changed the average FP value more than five-times the standard deviation (SD) (Fig. 1d, red lines). Moreover, compounds that either increased or decreased the total fluorescence intensity (FI) more than five-times the SD were removed from further analysis, indicating either compound aggregation or unspecific interactions with the fluorophore or protein complex.
# (§2) Libraries were reformatted from 96-well plates to Greiner 384-well black plates using a GILSON PipetMax. The plates were sealed with adhesive foil and stored at − 20 °C until further use. […] A total of 40 nL of 10 mmol/L compound stocks were transferred to each well using a Mosquito liquid handler system (final DMSO concentration of 0.1% (v/v)). The plates were incubated in the dark for 30 min at 25 °C, and the fluorescence polarization from each well was measured using a ClarioStar Plate reader with appropriate excitation and emission filter settings. Dose–response curves were constructed by serial dilution of compounds in DMSO and adding a fixed volume to a mixture of peptide and cTnC.
# (§3) Fluorescence polarization dose–response and binding experiments were performed in Greiner 384-well black plates in assay buffer (20 mmol/L Tris–HCl pH 7, 100 mmol/L NaCl, 1 mmol/L CaCl2, 1 mmol/L DTT) at 25 °C.
# [2] = biological target: interaction between cTnC and switch peptide of cTnI (cTnISP) (Homo sapiens, UniProt P63316); assay: Fluorescence polarization HTS and dose-response, cTnC/FAM-cTnISP; format: binding; conditions: for FP (mP): cTnISP primary screen, single concentration 50 μmol/L; for Effect on FP from a mixture of FAM-cTnISP and cTnC: dose-response, concentration dependent (Fig. 2a)
# Method: as §1, §2, §3
# [3] = tested on: bovine cardiac myofibrils; assay: NADH-coupled ATPase activity of isolated cardiac myofibrils; format: biochemical; conditions: for Effect on ATPase activity of cardiac myofibrils: submaximal calcium activation (~30% of maximum), pCa 6, up to 100 μmol/L; for Effect on myofibrillar ATPase activity: sub-maximal activation (~70% of maximal), pCa 5.8, up to 100 μmol/L
# Method: Bovine cardiac myofibrils (CMF) were freshly prepared from bovine ventricle as previously described[49]. The NADH-coupled ATPase assay was adapted to test the effects of drugs on bovine cardiac myofibrils[50]. Briefly, buffers with varying free [Ca^2+] were prepared by adding the appropriate concentrations of EGTA and CaCl2 calculated using the MAXCHELATOR software. ATPase assays for hits identified in the cTnI switch peptide and anchoring region screens were performed at pCa 6 and pCa 5.8, respectively. […] 20 μL Enzyme mix was added to individual wells using a 12-well multichannel pipette. Appropriate concentrations of drugs were added to each well and the plate was shaken at 1000 rpm for 5 min on a plate shaker and further incubated at room temperature for 10 min. Substrate mix was dispensed into each well using the Gilson PipetMax. The plate was briefly spun down to ensure removal of air bubbles. The reaction was followed by recording the fluorescence intensity of each well with excitation at 380 nm and emission at 470 nm, for 10 min scanning the plate every 30 s. The temperature was kept constant at 25 °C. ATPase rates were extracted by linear regression to datapoints in GraphPad Prism.
compound,measurement,setting,value
CCOc1cc(CC(=O)N[C@@H](CC(C)C)c2ccccc2N2CCCCC2)ccc1C(=O)O [Repaglinide],FP (mP),[1]; TOCRIScreen library,103.2 mP
CCN1CCN(C(=O)Cc2ccc(Nc3ncc(F)c(Nc4ccc(C(=O)Nc5ccccc5Cl)cc4)n3)cc2)CC1 [TC-S 7010],FP (mP),[1]; TOCRIScreen library,108.3 mP
CN(C)c1cc2c(Nc3ccc4c(cnn4Cc4ccccc4)c3)ncnc2cn1 [GW2974],FP (mP),[1]; LOPAC 1280 library,117.8 mP
CC(C)c1cccc(C(C)C)c1N1C(=O)c2ccc(O)cc2C1=O [5-HPP-33],FP (mP),[2]; LOPAC 1280 library,112 mP
same,Effect on FP from a mixture of FAM-cTnISP and cTnC,[2],increased the FP
same,Effect on ATPase activity of cardiac myofibrils,[3],no or little activation
CCn1c(-c2nonc2N)nc2cnc(Oc3cccc(NC(=O)c4ccc(OCCN5CCOCC5)cc4)c3)cc21 [GSK 269962],FP (mP),[1]; TOCRIScreen library,104.8 mP
O=C(NCc1ccc(C(F)(F)F)cc1)Nc1cccc2cnccc12 [A 425619],FP (mP),[1]; TOCRIScreen library,105.5 mP
Cl.c1ccc(C2CCCC2NC2=NCCCCCCCCCCC2)cc1 (stereo not shown) [cDPCP],FP (mP),[1]; LOPAC 1280 library,67.5 mP
NC(=O)N1c2ccccc2CC(=O)c2ccccc21 [Oxcarbazepine],FP (mP),[1]; ENZO Screenwell library,70.9 mP
Oc1c2ccccc2c2c3c(cccc13)N=N2 [SP600125],FP (mP),[1]; LOPAC 1280 library,65 mP
Cc1ccc2[nH]c(=O)c(C3=NN(C(=O)CCC(=O)O)C(c4ccc(Br)cc4)C3)c(-c3ccccc3)c2c1 (stereo not shown) [DQP 1105],FP (mP),[1]; TOCRIScreen library,103 mP
O=C(O)c1ccc(-c2ccc(/C=C3\SC(=S)N(Cc4ccccc4)C3=O)o2)cc1 [Leukadherin-1],FP (mP),[1]; LOPAC 1280 library,121.9 mP
O=C(O)C[C@H]1CC[C@H](c2ccc(NC(=O)c3nnc(Nc4ccc(F)c(F)c4)o3)cc2)CC1 [AZD 3988],FP (mP),[1]; TOCRIScreen library,115.5 mP
"N.N.[Cl][Pt][Cl] [Cisplatin, Cis-Diamineplatinum(Ii) Dichloride]",FP (mP),[1]; ENZO Screenwell library,61.9 mP
same,FP (mP),[1]; LOPAC 1280 library,56.6 mP
Cc1cn[nH]c1 [Fomepizole],FP (mP),[1]; ENZO Screenwell library,118 mP
CN(C)CCCn1cc(C2=C(c3c[nH]c4ccccc34)C(=O)NC2=O)c2ccccc21 [GF 109203X],FP (mP),[2]; TOCRIScreen library,82.4 mP
same,FP (mP),[1]; TOCRIScreen library,104.5 mP
O=C(O)c1cccc(-c2ccc(-c3cn(C(=O)N4CCCCC4Cc4ccccc4)nn3)cc2)c1 (stereo not shown) [KT203],FP (mP),[1]; LOPAC 1280 library,71.7 mP
same,Effect on FP from the cTnC FAM-cTnIAR mixture,[1],decreased the FP
same,Effect on myofibrillar ATPase activity,[3],no effect
CCCC[P+](CCCC)(CCCC)Cc1ccc(NC(=O)[C@H](Cc2ccc3ccccc3c2)NC(=NC2CCCCC2)NC2CCCCC2)cc1.Cl.[Cl-] [WIN 64338 hydrochloride],FP (mP),[1]; TOCRIScreen library,71 mP
C[C@]12C=CC(=O)C=C1CC[C@@H]1C2=CC[C@]2(C)[C@@H](C(=O)CN3CCN(c4cc(N5CCCC5)nc(N5CCCC5)n4)CC3)CC[C@@H]12.O=C(O)/C=C\C(=O)O [U-74389G maleate],FP (mP),[1]; LOPAC 1280 library,115.3 mP
N.N.O=C([O-])C1(C(=O)[O-])CCC1.[Pt+2] [Carboplatin],FP (mP),[1]; ENZO Screenwell library,67.3 mP
O=C1NCN(c2ccccc2)C12CCN(CCCC(c1ccc(F)cc1)c1ccc(F)cc1)CC2 [Fluspirilene],FP (mP),[2]; LOPAC 1280 library,88.6 mP
CN1CCN(c2ccc(/C=C(\C#N)c3ccccc3Br)cc2)CC1.Cl.Cl [DG 172 dihydrochloride],FP (mP),[2]; TOCRIScreen library,81 mP
O[C@@H](CN1CCNCC1)Cn1c2ccc(Br)cc2c2cc(Br)ccc21 [Bax channel blocker],FP (mP),[2]; TOCRIScreen library,77.1 mP
CCCC[C@@H](C=O)NC(=O)[C@H](CC(C)C)NC(=O)OCc1ccccc1 [Calpeptin],FP (mP),[2]; TOCRIScreen library,121.8 mP
O=C(O)c1ccc(/C=C2\SC(=S)N(c3cccc(C(F)(F)F)c3)C2=O)cc1 [CFTR Inh172],FP (mP),[2]; TOCRIScreen library,127.9 mP
same,Effect on FP from a mixture of FAM-cTnISP and cTnC,[2],increased the FP
same,Effect on ATPase activity of cardiac myofibrils,[3],no or little activation
CC(C)COCC(CN(Cc1ccccc1)c1ccccc1)N1CCCC1 (stereo not shown) [Bepridil hydrochloride],FP (mP),[2]; TOCRIScreen library,87 mP
Cc1[nH]c(/C=C2\C(=O)Nc3ccc(S(=O)(=O)Cc4c(Cl)cccc4Cl)cc32)c(C)c1C(=O)N1CCC[C@@H]1CN1CCCC1 [PHA 665752],FP (mP),[2]; TOCRIScreen library,76.4 mP
CN(C)CCOc1ccc(/C(=C(/CCCl)c2ccccc2)c2ccccc2)cc1 [Toremifene Base],FP (mP),[2]; ENZO Screenwell library,60.7 mP
Cc1cccc(C)c1-n1c(=O)c2cnc(Nc3ccc(N4CCN(C)CC4)cc3)nc2n2c3ccccc3nc12 [TC-S 7003],FP (mP),[2]; TOCRIScreen library,73.5 mP
[H]/N=C(/NCCCCC)N/N=C/c1c[nH]c2ccc(OC)cc12 [Tegaserod maleate],FP (mP),[2]; LOPAC 1280 library,78.4 mP
O=C1c2c(O)ccc(O)c2C(=O)c2c(NCCNCCO)ccc(NCCNCCO)c21 [Mitoxantrone],FP (mP),[1]; LOPAC 1280 library,57.1 mP
COc1cc(N2CCC(O)CC2)ccc1Nc1cc(Nc2ccccc2S(=O)(=O)C(C)C)c2cc[nH]c2n1.Cl.Cl [Mps1-IN-1 dihydrochloride],FP (mP),[2]; TOCRIScreen library,84.6 mP
O=C(Nc1cccc(C(F)(F)F)c1)Nc1ccc(Br)cc1-c1nn[nH]n1 [NS3623],FP (mP),[2]; TOCRIScreen library,121.6 mP
same,Effect on FP from a mixture of FAM-cTnISP and cTnC,[2],increased the FP
same,Effect on ATPase activity of cardiac myofibrils,[3],significantly increased the ATPase activity
CCN(CC)CCCC(C)Nc1nc(C)cc(Nc2ccc3nc(C)cc(N)c3c2)n1 (stereo not shown) [NSC 23766],FP (mP),[2]; TOCRIScreen library,89.5 mP
N.N.N.N.N.N.N.N.N.N.N.N.N.N.[Cl-].[Cl-].[Cl-].[Cl-].[Cl-].[Cl-].[O-2].[O-2].[Ru+3].[Ru+3].[Ru+4] [Ruthenium red],FP (mP),[2]; LOPAC 1280 library,83.7 mP
same,FP (mP),[1]; LOPAC 1280 library,44.3 mP
CC1Cc2ccccc2N1NC(=O)c1ccc(Cl)c(S(N)(=O)=O)c1 (stereo not shown) [Indapamide],FP (mP),[1]; ENZO Screenwell library,116.5 mP
CCCCCCCCNC(=O)/C(C#N)=C/c1cn(CCCN(C)C)c2ccccc12 [Dynole 34-2],FP (mP),[2]; TOCRIScreen library,64.1 mP
Colistin Sulfate,FP (mP),[2]; ENZO Screenwell library,78.5 mP
same,FP (mP),[1]; ENZO Screenwell library,71.7 mP
CCN(CC)CCCCN1c2ccccc2Oc2ccc(Cl)cc21.Cl [10-DEBC hydrochloride],FP (mP),[2]; TOCRIScreen library,82.8 mP
COc1cc2ncnc(Nc3ccc(F)c(Cl)c3)c2cc1OCCCN1CCOCC1 [Gefitinib],FP (mP),[2]; ENZO Screenwell library,83.7 mP
same,FP (mP),[2]; TOCRIScreen library,81.8 mP
CCc1ccc(OCc2ccccc2C(=O)Nc2ccc3nc(C)cc(N)c3c2)cc1 [JTC 801],FP (mP),[2]; TOCRIScreen library,84.3 mP
CN1CCN(CCCN2c3ccccc3Sc3ccc(Cl)cc32)CC1 [Prochlorperazine dimaleate],FP (mP),[2]; LOPAC 1280 library,86.2 mP
same,FP (mP),[2]; TOCRIScreen library,78.2 mP
COc1ccc(-c2oc3c(CC=C(C)C)c(O)cc(O)c3c(=O)c2O)cc1 [Icaritin],FP (mP),[1]; LOPAC 1280 library,64.6 mP
same,Effect on FP from the cTnC FAM-cTnIAR mixture,[1],decreased the FP
same,Effect on myofibrillar ATPase activity,[3],no effect
N#CC(C#N)=C(N)/C(C#N)=C/c1ccc(O)cc1 [Tyrphostin AG 112],FP (mP),[1]; LOPAC 1280 library,115.8 mP
Clc1ccc(C(c2ccc(Cl)cc2)n2cc[n+](CC(OCc3ccc(Cl)cc3Cl)c3ccc(Cl)cc3Cl)c2)cc1 (stereo not shown) [Calmidazolium chloride],FP (mP),[2]; LOPAC 1280 library,83.6 mP
COc1ccc(N(C(=O)Oc2c(C)cccc2C)c2ccnc(Nc3ccc(N4CCN(C)CC4)cc3)n2)c(OC)c1 [WH-4-023],FP (mP),[2]; TOCRIScreen library,56.3 mP
COc1cc2c(Nc3ccc(NC(=O)c4ccccc4)cc3)ncnc2cc1OCCCN1CCOCC1 [ZM 447439],FP (mP),[2]; TOCRIScreen library,89.2 mP
CS(=O)(=O)O.Cn1cc(C2=C(c3cn(CCCSC(=N)N)c4ccccc34)C(=O)NC2=O)c2ccccc21 [Ro 31-8220 mesylate],FP (mP),[2]; TOCRIScreen library,57.9 mP
O=C(O)C(O)C(O)C(=O)O.Oc1ccc2c(c1)CC[C@H](c1ccccc1)[C@@H]2c1ccc(OCCN2CCCC2)cc1 [Lasofoxifene tartrate],FP (mP),[2]; LOPAC 1280 library,86.8 mP
"CCCCCOc1ccc(-c2cc(-c3ccc(C(=O)N[C@H]4C[C@@H](O)[C@@H](O)NC(=O)[C@@H]5[C@@H](O)[C@@H](C)CN5C(=O)[C@H]([C@H](O)CC(N)=O)NC(=O)[C@H]([C@H](O)[C@@H](O)c5ccc(O)c(OS(=O)(=O)O)c5)NC(=O)[C@@H]5C[C@@H](O)CN5C(=O)[C@H]([C@@H](C)O)NC4=O)cc3)no2)cc1 [Micafungin] (X1-[Orn(4R-OH,5R-OH)]T[Hyp][hTyr(3S-OH,4S-OH,3'-OSO3H)][Gln(3R-OH)][Pro(3S-OH,4S-Me)]; lactam 1-C)",FP (mP),[2]; ENZO Screenwell library,128.6 mP
O=C(c1ccc(Nc2nccc(-c3cc4ccccc4s3)n2)cc1)N1CCC(N2CCCC2)CC1 [IKK-16 dihydrochloride],FP (mP),[2]; LOPAC 1280 library,84.3 mP
[H]/N=C(\N/C(=N/[H])NCCCCCCNC(=N)NC(=N)Nc1ccc(Cl)cc1)Nc1ccc(Cl)cc1 [Chlorhexidine Dihydrochloride],FP (mP),[1]; ENZO Screenwell library,58.8 mP
